These results are taken from ChEMBL document CHEMBL2390861, “Caffeic acid derivatives: a new type of influenza neuraminidase inhibitors” (Bioorg Med Chem Lett, 2013).

Where only a bound is given, the exact number is not on record here.

Data set [1] has as its target T1, Neuraminidase (Influenza A virus, UniProt B4URF0). Put plainly: Inhibition of Influenza A virus H1N1 A/duck/China/QJ/01 neuraminidase N1 using 4-MU-NANA as substrate after 5 mins by fluorescence assay.
For data set [2], the target named is T1, Neuraminidase. The data set can be described thus: Inhibition of Influenza A virus (A/chicken/Sandong/Li/2008(H9N2)) neuraminidase N2 using 4-MU-NANA as substrate after 5 mins by fluorescence assay.
A short description of data set [3]: Cytotoxicity against chicken embryo fibroblast after 2 days by MTS assay. In kind it is cell-based, Gallus gallus. To be noted: chicken embryo fibroblasts.
Data set [4] addresses Neuraminidase (Influenza A virus) (UniProt B4URF0). Put plainly: Inhibition of Influenza A virus H1N1 A/duck/China/QJ/01 neuraminidase N1 using 4-MU-NANA as substrate at 100 uM after 5 mins by fluorescence assay.
In another data set the test system is Influenza A virus. Put plainly: Antiviral activity against Influenza A virus (A/chicken/Sandong/Li/2008(H9N2)) infected in chicken embryo fibroblast assessed as protection against virus-induced cytopathic effect after 2 days by MTS assay. In kind it is functional, organism-based. To be noted: 48 h. On the technique in general: Cytopathic effects are the visible damage that an infection or toxin causes in cultured cells.

Data set [5] concerns the target T1, Neuraminidase. The data set can be described thus: Inhibition of Influenza A virus H9N2 neuraminidase.
Data set [6] addresses T1, Neuraminidase. Put plainly: Inhibition of Influenza A virus H1N1 neuraminidase.
Data set [7] concerns the target T1, Neuraminidase. Put plainly: Non-competitive inhibition of Influenza A virus (A/chicken/Sandong/Li/2008(H9N2)) neuraminidase N2 using 4-MU-NANA as substrate by Lineweaver-Burk plot analysis.

What is called IC50 is the concentration that inhibits the measured activity by half. A low value points to inhibition by little substance. As a reminder, the CC50 is the concentration that lowers cell viability or growth by half. A low value points to greater toxicity to the cells. Take `CC(=O)Nc1cc(NC(=O)/C=C/c2ccc(O)c(O)c2)ccc1OCC(=O)O`: the IC50 stood at 12.2 µM against Neuraminidase [1] and 15.4 µM against Neuraminidase [2]. This compound came in with a CC50 at 48 h in data set [3] of 60.4 µM.
For `O=C(/C=C/c1ccc(O)c(O)c1)NCCC[C@H](NC(=O)Cc1ccccc1)C(=O)O`, the IC50 against Neuraminidase [1] stood at 30.2 µM; at Neuraminidase [2] it was 28.1 µM. In data set [3], this compound showed a CC50 at 48 h of 87.7 µM.
As usually defined, the inhibition is the change of the read-out against control, counted positive when it falls. Read a low inhibition as a weak effect. On to `CCC(=O)Nc1cc(NC(=O)/C=C/c2ccccc2)ccc1O`, for which, in data set [4], the inhibition is 42.9%.
With `O=C(/C=C/c1ccccc1)Nc1ccc(O)c(NC(=O)C2CC2)c1`, the inhibition in data set [4] was found to be 42.6%.
The term EC50 denotes the concentration giving half of the maximal effect. In the case of `O=C(/C=C/c1ccc(O)c(O)c1)N[C@@H](Cc1c[nH]c2ccccc12)C(=O)O`, the IC50 was 30.1 µM at Neuraminidase [1] and 27.2 µM against Neuraminidase [2]. Moreover, in the data set on Influenza A virus, the EC50 was more than 100 µM. Further, the midpoint of cytotoxicity in data set [3], the CC50 at 48 h, lay at 89.5 µM.
For `O=C(/C=C/c1ccc(O)c(O)c1)N[C@@H](Cc1ccccc1)C(=O)O`, the IC50 on Neuraminidase [1] stood at 37.4 µM; at Neuraminidase [2], 39.6 µM.
Turning to `O=C(/C=C/c1ccc(O)cc1)CC(=O)/C=C/c1ccc(O)c(O)c1`, inhibition at Neuraminidase [5] was half-maximal at 64.1 µM (IC50).
Regarding `O=C(O)CNC(=O)/C=C/c1ccc(O)c(O)c1`, the IC50 at Neuraminidase [1] was determined as 49.5 µM; on Neuraminidase [2] it was 43.3 µM.
Regarding `O=C(/C=C/c1ccc(O)c(O)c1)CC(=O)/C=C/c1ccc(O)c(O)c1`, inhibition on Neuraminidase [5] was half-maximal at 63.8 µM (IC50).
`COc1cc(O)ccc1C(=O)/C=C/c1ccc(O)cc1` had an IC50 on Neuraminidase [6] of 24.3 µM.
`CC(C)C(=O)Nc1cc(NC(=O)/C=C/c2ccccc2)ccc1O` registered an inhibition in data set [4] of 47.2%.
Regarding `CC(C)(C)OC(=O)N[C@@H](CCCNC(=O)/C=C/c1ccc(O)c(O)c1)C(=O)O`, the IC50 amounted to 34.7 µM against Neuraminidase [1] and 33.6 µM at Neuraminidase [2].
On to `O=C(O)COc1ccc(NC(=O)/C=C/c2ccc(O)c(O)c2)cc1NC(=O)C1CC1`, for which the values for the IC50 on Neuraminidase [1] and against Neuraminidase [2] were 13.8 µM and 16.5 µM, respectively. The compound further returned a cytotoxic concentration (CC50) at 48 h in data set [3] of 86.7 µM.
For the compound `O=C(/C=C/c1ccc(O)c(O)c1)NCCC[C@H](NC(=O)c1ccccc1)C(=O)O`, the values for the IC50 at Neuraminidase [1] and on Neuraminidase [2] were 34.3 µM and 37.2 µM, respectively.
In the case of `CC(C)[C@H](NC(=O)/C=C/c1ccc(O)c(O)c1)C(=O)O`, the results for the IC50 against Neuraminidase [1] and against Neuraminidase [2] were 38.3 µM and 37.3 µM, respectively.
`CC(=O)Nc1cc(NC(=O)/C=C/c2ccccc2)ccc1O` gave an inhibition in data set [4] of 40.2%.
For the compound `CCC(CC)C(=O)Nc1cc(NC(=O)/C=C/c2ccccc2)ccc1O`, in data set [4], the inhibition is 45.2%.
`CC(=O)Nc1cc(NC(=O)/C=C/c2ccc(O)c(O)c2)ccc1O`: the IC50 against Neuraminidase [1] stood at 17.7 µM; against Neuraminidase [2], 27.4 µM. In data set [3], this compound gave a CC50 at 48 h of 78.2 µM.
Turning to `CCC(CC)C(=O)Nc1cc(NC(=O)/C=C/c2ccc(O)c(O)c2)ccc1O`, the results for the IC50 against Neuraminidase [1] and at Neuraminidase [2] were 22.8 µM and 20.7 µM, respectively. Moreover, the EC50 in the data set on Influenza A virus was determined as 22.6 µM. In data set [3], this compound had a CC50 at 48 h of more than 100 µM.
Turning to `CCC(=O)Nc1cc(NC(=O)/C=C/c2ccc(O)c(O)c2)ccc1O`, the half-maximal inhibitory concentration (IC50) at Neuraminidase [1] worked out at 17.6 µM; against Neuraminidase [2], 23.6 µM. Further, in the data set on Influenza A virus, the EC50 worked out at 58.6 µM. For the same compound, the CC50 at 48 h in data set [3] is more than 100 µM.
Regarding `O=C(/C=C/c1ccc(O)c(O)c1)Nc1ccc(O)c(NC(=O)C2CC2)c1`, the IC50 stood at 18.2 µM at Neuraminidase [1] and 24.7 µM against Neuraminidase [2].
For `CC(C)C(=O)Nc1cc(NC(=O)/C=C/c2ccc(O)c(O)c2)ccc1O`, in that order: 19 µM and 20.4 µM.
The Ki is the equilibrium dissociation constant of an inhibitor or competing ligand from its target. Turning to `CCC(CC)C(=O)Nc1cc(NC(=O)/C=C/c2ccc(O)c(O)c2)ccc1OCC(=O)O`, the Ki on Neuraminidase [7] came out at 11.5 µM. Further, the IC50 at Neuraminidase [1] was 8.5 µM; against Neuraminidase [2], 7.2 µM. Further, the EC50 in the data set on Influenza A virus was 31.2 µM. In data set [3], this compound had a CC50 at 48 h of more than 100 µM.
As to `O=C(O)CCNC(=O)/C=C/c1ccc(O)c(O)c1`, the IC50 at Neuraminidase [1] turned out to be 27.3 µM; against Neuraminidase [2] it was 13.5 µM. Moreover, the EC50 in the data set with Influenza A virus is more than 100 µM. The compound also came in with a CC50 at 48 h in data set [3] of more than 100 µM.
As for `CCC(CC)C(=O)N[C@@H](CCCNC(=O)/C=C/c1ccc(O)c(O)c1)C(=O)O`, the IC50 against Neuraminidase [1] is 39.2 µM; at Neuraminidase [2] it was 44.2 µM.
Turning to `CCC(=O)N[C@@H](CCCNC(=O)/C=C/c1ccc(O)c(O)c1)C(=O)O`, the IC50 turned out to be 31.3 µM at Neuraminidase [1] and 37.9 µM at Neuraminidase [2].
Take `CC(C)C(=O)Nc1cc(NC(=O)/C=C/c2ccc(O)c(O)c2)ccc1OCC(=O)O`: the results for the IC50 at Neuraminidase [1] and against Neuraminidase [2] were 11.6 µM and 13 µM, respectively. The CC50 at 48 h in data set [3] is 94.3 µM.
Regarding `CC(C)C(=O)N[C@@H](CCCNC(=O)/C=C/c1ccc(O)c(O)c1)C(=O)O`, the IC50 is 31.9 µM on Neuraminidase [1] and 30.3 µM on Neuraminidase [2]. In addition, in data set [3], the CC50 at 48 h turned out to be 65 µM.
In the case of `O=C(O)CCCNC(=O)/C=C/c1ccc(O)c(O)c1`, the IC50 on Neuraminidase [1] was 27.7 µM; against Neuraminidase [2], 16.8 µM.
Take `CCOC(=O)C1=C[C@@H](OC(CC)CC)[C@H](NC(C)=O)[C@@H](N)C1` [OSELTAMIVIR]: the EC50 in the data set with Influenza A virus was 0.5 µM. Also, in data set [3], the CC50 at 48 h is more than 10 µM.
